Test results published in the NIST ThermoML archive (doi:10.1021/je100850z).
Several values for one entry are separate records, joined by “and”; a condition that tells them apart may be missing. Identical values can stand only once.

Assays:
[1] = Crystal; for vapor or sublimation pressure: Calculated from knudsen effusion weight loss; for Normal melting temperature: DTA
[2] = Molar enthalpy of transition or fusion; conditions: Crystal; DSC

O=c1c2ccccc2oc2ccccc12 [9H-xanthen-9-one]
[1]
Conditions	vapor or sublimation pressure
342.22 K	0.00013 kPa and 0.000132 kPa and 0.000129 kPa
344.15 K	0.000163 kPa and 0.00016 kPa and 0.000157 kPa
346.26 K	0.000197 kPa and 0.000201 kPa and 0.000196 kPa
348.26 K	0.000238 kPa and 0.00024 kPa and 0.000245 kPa
350.26 K	0.000301 kPa and 0.000303 kPa and 0.000295 kPa
354.2 K	0.000451 kPa and 0.000452 kPa and 0.000434 kPa
356.21 K	0.000553 kPa and 0.000546 kPa and 0.000529 kPa
358.26 K	0.000674 kPa and 0.000667 kPa and 0.000658 kPa
360.15 K	0.000814 kPa and 0.000799 kPa and 0.000781 kPa
362.22 K	0.000989 kPa and 0.000954 kPa

Conditions	Molar enthalpy of transition or fusion [kcal/mol]	Normal melting temperature [°C]
[1]	–	175.2
[2]	6.36	–

O=C1c2ccccc2Cc2ccccc21 [9(10H)-anthracenone]
[1]
Conditions	vapor or sublimation pressure
346.15 K	0.000131 kPa and 0.000128 kPa
348.14 K	0.000162 kPa and 0.000156 kPa
351.13 K	0.000223 kPa and 0.000217 kPa and 0.000221 kPa
354.18 K	0.000299 kPa and 0.00029 kPa and 0.000307 kPa
355.68 K	0.000359 kPa and 0.000354 kPa and 0.000348 kPa
357.19 K	0.00041 kPa and 0.000405 kPa and 0.000396 kPa
360.15 K	0.000558 kPa and 0.000553 kPa and 0.000533 kPa
363.14 K	0.000744 kPa and 0.000727 kPa and 0.0007 kPa
365.14 K	0.000895 kPa and 0.000879 kPa and 0.00084 kPa

Conditions	Molar enthalpy of transition or fusion [kcal/mol]	Normal melting temperature [°C]
[1]	–	156.4
[2]	5.35	–

O=C1c2ccccc2C(=O)c2ccccc21 [9,10(9H,10H)-anthracenedione]
[1]
Conditions	vapor or sublimation pressure
377.06 K	0.000173 kPa and 0.000164 kPa
379.08 K	0.00021 kPa and 0.0002 kPa
381.26 K	0.00025 kPa and 0.000246 kPa
383.26 K	0.000299 kPa and 0.000302 kPa
385.26 K	0.000359 kPa and 0.000352 kPa
391.26 K	0.000618 kPa
393.08 K	0.000743 kPa and 0.000716 kPa
395.03 K	0.000886 kPa

Conditions	Molar enthalpy of transition or fusion [kcal/mol]	Normal melting temperature [°C]
[1]	–	283.6
[2]	8.68	–

c1ccc2c(c1)Sc1ccccc1S2 [thianthrene]
[1]
Conditions	vapor or sublimation pressure
344.27 K	0.000161 kPa and 0.000163 kPa
346.12 K	0.0002 kPa and 0.000198 kPa and 0.000197 kPa
348.1 K	0.000246 kPa and 0.000243 kPa and 0.000239 kPa
350.26 K	0.000301 kPa and 0.000299 kPa
352.11 K	0.00037 kPa and 0.000368 kPa and 0.000362 kPa
354.1 K	0.000447 kPa and 0.000446 kPa and 0.000439 kPa
356.26 K	0.000549 kPa and 0.00056 kPa and 0.000555 kPa
358.1 K	0.00068 kPa and 0.000687 kPa and 0.000669 kPa
362.05 K	0.000992 kPa and 0.000995 kPa and 0.000973 kPa
364.06 K	0.001197 kPa and 0.001196 kPa and 0.00117 kPa

O=c1c2ccccc2sc2ccccc12 [thioxanthone]
[1]
Conditions	vapor or sublimation pressure
369.12 K	0.000187 kPa and 0.000186 kPa and 0.000178 kPa
371.2 K	0.000232 kPa and 0.000226 kPa and 0.000222 kPa
373.26 K	0.000284 kPa and 0.000274 kPa and 0.00027 kPa
375.12 K	0.000335 kPa and 0.00032 kPa and 0.000321 kPa
377.11 K	0.000413 kPa and 0.000405 kPa and 0.000383 kPa
379.2 K	0.000496 kPa and 0.000495 kPa and 0.00048 kPa
381.27 K	0.000611 kPa and 0.000592 kPa and 0.000579 kPa
383.12 K	0.000711 kPa and 0.000701 kPa and 0.000664 kPa
385.27 K	0.000863 kPa and 0.00082 kPa and 0.00081 kPa
387.2 K	0.001018 kPa and 0.001001 kPa and 0.000962 kPa

Conditions	Molar enthalpy of transition or fusion [kcal/mol]	Normal melting temperature [°C]
[1]	–	213.5
[2]	6.79	–
